The source of these data is patent US7507727B2, “Substituted quinobenzoxazine analogs and methods of using thereof” (Cylene Pharmaceuticals, Inc., priority 2003, dated 2009).

Each structure is given as a SMILES string.

Data set [1] in a line: Subacute study of intravenously administered CX-3543 in dogs (safety and tolerance). The class given is in vivo. The procedure:
This study determines the safety and tolerance of CX-3543 at three dose levels administered intravenously once daily to beagle dogs for five consecutive days. Safety parameters were monitored through observation, clinical pathology, and microscopic histopathology assessments. Selected animals also underwent blood sample collection for pharmacokinetic/toxicokinetic evaluation. All animals were also assessed with ECG evaluations to detect heart rhythm and/or conduction abnormalities.
The study was conducted using three (3) test article and one (1) control article group. The control article was the solution (5% dextrose in water) used to dilute the test article prior to administration and was administered at the same volume as the high dose. The test article dosage levels for this study were approximately 12, 3.8, and 1.2 mg/kg. Test and control articles were administered once by intravenous (IV) infusion over approximately a one hour period on five consecutive days. Blood samples for test article blood level analysis was taken as follows (i.e., pk/tk sampling): approximately 1 mL of blood was taken from three male and three female dogs in the low dose group at approximately 20 minutes and 40 minutes from the start of the infusion, and then at the end of infusion (Time 0) and at 5, 10, 15, and 30 minutes, and 1, 2, 4, 8, 12, and 24 hours from the end of the infusion after the first and fifth doses. Also, prior to and immediately after Dose 1 and after Dose 5 for all animals, and for recovery animals prior to necropsy, approximately 5-10 second ECG tracings in a lead II configuration were obtained. Animals were terminated one (1) or 15 days after the last dose. […]
Clinical Pathology: After overnight fasting and prior to the first dose (baseline; all animals) and then prior to each necropsy, blood samples are taken for hematology and clinical chemistry. For hematology assays, blood collected at baseline and prior to necropsy (fasted) are analyzed for erythrocyte count, hematocrit, MCH, leukocyte count, differential WC, MCHC, hemoglobin, MCV, platelet count, PT, and APTT. […]

Data set [2] is described as follows: Metabolic stability and metabolite profiling in hepatocytes. Format: in vitro ADME, human. As for the experimental part: Metabolic Stability Assay and Metabolite Profiling. A human hepatocyte assay to profile metabolites was carried out using commercially available kits and following standard procedures. The metabolic stability of CX-3543 with human hepatocytes was evaluated following incubation at 0, 30, 60, and 120 minutes at 1 and 20 μM. Consumption of the parent compound and the appearance of metabolites were carefully monitored, and mass spectrometer product ion scans were conducted on potential metabolite peaks to define the metabolite fragmentation pattern.
The protocol is designed to determine the stability of a new chemical entity in the presence of hepatocytes (human, rat, dog, monkey) in in vitro incubations. The test article will be incubated with hepatocytes and suitable media for various times at 37° C. The reaction mixtures will be extracted and analyzed by LC/MS/MS for the parent compound and anticipated metabolites. If applicable, a half-life will be calculated for the consumption of the test article. Metabolism controls will be run for comparison of the half-life values with that obtained for the test article. The metabolism controls are tolbutamide, desipramine and naloxone, and these compounds have defined pharmacokinetics corresponding to low, moderate and high in vivo clearance values, respectively.
Metabolic Stability Study. Generally, solutions of the test compounds are prepared along with a cocktail solution of metabolism controls that are intended to provide a reference for enzyme activity. The reactions are initiated by combining these pre-warmed solutions with hepatocyte suspensions and with a media control solution. Control zero samples are taken from these reactions immediately after initiation. Additional samples are taken at appropriate time points. Each sample is immediately placed in a terminating solution (acidified acetonitrile containing internal standard) to stop the reaction. Hepatocyte blank suspensions and test compound standard solutions are prepared.
Samples and standards for the test compound as well as appropriate blanks are subjected to a custom sample preparation procedure and analyzed for the parent and/or metabolite form of the test compound using high-performance liquid chromatography coupled with tandem mass spectrometry. Samples and standards for the metabolism controls are subjected to the analytical method described herein. Where Krebs Henseleit buffer is added, the buffer is bubbled with 5% CO2 in air at room temperature for 5-10 minutes before adding BSA to a final concentration of 0.2% w/v. The volume of terminating solution and the method of sample preparation will be determined for the test article during method development.
Test Article/Media Solution. A solution of the test article will be prepared by adding an appropriate volume of the stock solution to 0.2% BSA in Krebs Henseleit buffer equilibrated with 5% CO2 in air. The final concentration will be 20 μM and the final assay concentration at initiation of the reactions will be […].
Metabolism Controls/Media Solution. A solution of tolbutamide, desipramine and naloxone will be prepared by adding an appropriate volume of each 10 mM stock solution to 0.2% BSA in Krebs Henseleit buffer equilibrated with 5% CO2 in air. […]
Hepatocyte Suspension Solution. […] During the final step of the procedure, the viability of the cells will be determined using the method of trypan blue exclusion. […]

As a reminder, the Km is the substrate concentration at which the rate is half of its maximum. `CN1CCCC1CCNC(=O)c1cn2c3c(c(N4CCC(c5cnccn5)C4)c(F)cc3c1=O)Oc1cc3ccccc3cc1-2` (centres unmarked) [CX-3543]: the mortality result in data set [1] (dog, in vivo) is listed as “no mortality”. In addition, in data set [1] (dogs, five consecutive daily doses at 12, 3.8 or 1.2 mg/kg, IV one-hour infusion, except injection-site inflammation and necrosis), the tolerance entry is on record as “toxicologically well tolerated”. Further, the ECG monitoring entry in data set [1] (dogs, pre and post doses 1 and 5) was “No abnormalities were detected”. Moreover, in data set [2] (0 vs 120 min), the “metabolites in the hepatocyte incubation medium” value is recorded as “no single major metabolite is present”. Moreover, the values for the consumption by hepatocytes result in data set [2] (1 uM) and in data set [2] (concentrations from about 12-20 uM) were “very slowly” and “moderately to quickly”, respectively. Moreover, in data set [2] (at or below 12 uM), the original drug remaining result is “about 60%”. Moreover, the Km in data set [2] (human, human hepatocytes (suspension), read-out: apparent Km of consumption by hepatocytes) is over 20 µM.
